Data set [1] concerns A/Parma/24/09 H1N1. The settings on record: read-out: EC50 (effective concentration 50%); A/Parma/24/09 H1N1, MDCK cells.
The test system of data set [2] is A/Parma/05/06 H3N2. The settings on record: read-out: EC50 (effective concentration 50%); A/Parma/05/06 H3N2, MDCK cells.
The test system of data set [3] is A/Roma-ISS/2/08 H1N1. As to conditions: read-out: EC50 (effective concentration 50%); A/Roma-ISS/2/08 H1N1, MDCK cells.
Data set [4] can be described thus: Cytotoxicity assay. It counts as cell-based, canine. As to conditions: dog, MDCK cells, read-out: CC50 (cytotoxic concentration 50%). As to the method: To establish the maximal non-cytotoxic dose of bLf and its derivatives, two-fold serial dilutions of each substance in culture medium were incubated at 37° C. with confluent MDCK cells grown in 96-well tissue culture microplates (Nalge Europe Ltd, Neerijse, Belgium). After 24 h, the following parameters were evaluated: cell morphology and viability (determined by neutral red staining) were examined by light microscopy and cell proliferation was evaluated quantitatively by microscopic counts after dispersion into individual cells with trypsin.

The nature of data set [5]: Peptide stability. It counts as physicochemical.

pEC50: −log10 of the molar value. Ends that are not written are not given here. Where only a bound is given, the exact number is not on record here.

For “AGDDQGLDKCVPNSKEK [SEQ ID NO: 2, AGDDQGLDKCVPNSKEK]”, the pEC50 in data set [1] is 11.47; in data set [2], 11.14; in data set [3] it was 11.43. In addition, the CC50 at 24 h in data set [4] was > 25000 nM.
As to “SKHSSLDCVLRP [SEQ ID NO: 1, SKHSSLDCVLRP]”, the values for the pEC50 in data set [1], in data set [2] and in data set [3] were 11.51, 11.24 and 11.40, respectively. Moreover, in data set [4], the CC50 at 24 h was > 25000 nM.
With “NGESTADWAKN (bovine lactoferrin peptide from 553 aa to 563 aa) [SEQ ID NO: 3, bLf C-lobe peptide, residues 553-563]”, the “stability of the peptide (in words)” value in data set [5] is “poor stability”.
Regarding NGESSADWAKN [SEQ ID NO: 4, NGESSADWAKN], the pEC50 in data set [2] is 10.65. Further, the CC50 at 24 h in data set [4] was > 25000 nM.

The values above are taken from patent publication US20140322196A1 (priority 2011, published 2014).
